According to PubChem BioAssay (NCI):
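Here, GI50 denotes the concentration required for 50% inhibition of growth. TGI: concentration producing complete growth inhibition.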

Columns and labels:
Assay in all cases: inhibition of tumour cell growth, NCI panel, 384-well format
[1] = test system: 786-0 renal
[2] = test system: A498 renal
[3] = test system: A549 NSCLC
[4] = test system: ACHN renal
[5] = test system: BT-549 breast
[6] = test system: CAKI-1 renal
[7] = test system: CCRF-CEM leukemia
[8] = test system: COLO 205 colon
[9] = test system: DU-145 prostate
[10] = test system: EKVX NSCLC
[11] = test system: HCC-2998 colon
[12] = test system: HCT-116 colon
[13] = test system: HL-60(TB) leukemia
[14] = test system: HOP-62 NSCLC
[15] = test system: HOP-92 NSCLC
[16] = test system: HT29 colon
[17] = test system: IGROV1 ovarian
[18] = test system: K-562 leukemia
[19] = test system: KM12 colon
[20] = test system: LOX IMVI melanoma
[21] = test system: M14 melanoma
[22] = test system: MALME-3M melanoma
[23] = test system: MDA-MB-231 breast
[24] = test system: MDA-MB-435 melanoma
[25] = test system: MDA-MB-468 breast
[26] = test system: NCI-H23 lung
[27] = test system: NCI-H322M lung
[28] = test system: NCI-H522 lung
[29] = test system: NCI/ADR-RES ovarian
[30] = test system: OVCAR-3 ovarian
[31] = test system: OVCAR-5 ovarian
[32] = test system: OVCAR-8 ovarian
[33] = test system: PC-3 prostate
[34] = test system: RXF 393 renal
[35] = test system: SF-268 CNS
[36] = test system: SF-295 CNS
[37] = test system: SF-539 CNS
[38] = test system: SK-MEL-5 melanoma
[39] = test system: SK-OV-3 ovarian
[40] = test system: SN12C renal
[41] = test system: SNB-75 CNS
[42] = test system: SR leukemia
[43] = test system: SW-620 colon
[44] = test system: TK-10 renal
[45] = test system: U251 glioblastoma
[46] = test system: UACC-62 melanoma
[47] = test system: UO-31 renal

Work on `O=C(/C=C/c1cccc(S(=O)(=O)Nc2ccccc2)c1)NO` yielded a GI50 [1] of 898 nM, a TGI [1] of 2780 nM and a GI50 [2] of 494 nM. It also gave a TGI [2] of 1450 nM, a GI50 [3] of 422 nM and a TGI [3] of 1590 nM. The GI50 [4] was 493 nM, the TGI [4] was 1540 nM and the GI50 [5] was 925 nM. For the same compound, the TGI [5] was 2820 nM, the GI50 [6] was 218 nM and the TGI [6] was 885 nM. It also gave a GI50 [7] of 134 nM, a TGI [7] of 263 nM and a GI50 [8] of 330 nM. The TGI [8] was 791 nM, the GI50 [9] was 260 nM and the TGI [9] was 793 nM. It also gave a GI50 [10] of 1810 nM, a TGI [10] of 8530 nM and a GI50 [11] of 490 nM. For the same compound, the TGI [11] was 1220 nM, the GI50 [12] was 205 nM and the TGI [12] was 630 nM. It also gave a GI50 [13] of 223 nM, a TGI [13] of 373 nM and a GI50 [14] of 498 nM. It also gave a TGI [14] of 2330 nM, a GI50 [15] of 343 nM and a TGI [15] of 1070 nM. For the same compound, the GI50 [16] was 282 nM, the TGI [16] was 918 nM and the GI50 [17] was 271 nM. The TGI [17] was 781 nM, the GI50 [18] was 188 nM and the TGI [18] was 394 nM. For the same compound, the GI50 [19] was 128 nM, the TGI [19] was 1720 nM and the GI50 [20] was 385 nM. It also gave a TGI [20] of 1410 nM, a GI50 [21] of 537 nM and a TGI [21] of 2140 nM. For the same compound, the GI50 [22] was 184 nM, the TGI [22] was 450 nM and the GI50 [23] was 249 nM. The TGI [23] was 575 nM, the GI50 [24] was 492 nM and the TGI [24] was 1450 nM. For the same compound, the GI50 [25] was 196 nM, the TGI [25] was 487 nM and the GI50 [26] was 407 nM. It also gave a TGI [26] of 1590 nM, a GI50 [27] of 465 nM and a TGI [27] of 1840 nM. The GI50 [28] was 155 nM, the TGI [28] was 610 nM and the GI50 [29] was 210 nM. It also gave a TGI [29] of 551 nM, a GI50 [30] of 299 nM and a TGI [30] of 1280 nM. It also gave a GI50 [31] of 369 nM, a TGI [31] of 1480 nM and a GI50 [32] of 225 nM. For the same compound, the TGI [32] was 985 nM, the GI50 [33] was 433 nM and the TGI [33] was 1760 nM. It also gave a GI50 [34] of 87.7 nM, a TGI [34] of 365 nM and a GI50 [35] of 517 nM. For the same compound, the TGI [35] was 1660 nM, the GI50 [36] was 607 nM and the TGI [36] was 1910 nM. For the same compound, the GI50 [37] was 616 nM, the TGI [37] was 2650 nM and the GI50 [38] was 155 nM. For the same compound, the TGI [38] was 393 nM, the GI50 [39] was 490 nM and the TGI [39] was 1650 nM. The GI50 [40] was 853 nM, the TGI [40] was 2250 nM and the GI50 [41] was 258 nM. The TGI [41] was 796 nM, the GI50 [42] was 88.4 nM and the TGI [42] was 204 nM. For the same compound, the GI50 [43] was 188 nM, the TGI [43] was 436 nM and the GI50 [44] was 445 nM. It also gave a TGI [44] of 2000 nM, a GI50 [45] of 430 nM and a TGI [45] of 1340 nM. For the same compound, the GI50 [46] was 217 nM, the TGI [46] was 597 nM and the GI50 [47] was 1020 nM. The TGI [47] was 3170 nM.
